Entries after “also recorded” stand apart in the source; their conditions may differ.
Tested on: isolated embryonic rat cardiomyocytes
Assay: Spontaneous action potentials in rat cardiomyocytes, whole-cell patch clamp
Type: cell-based
Conditions: for effect on arrhythmic firing induced by Chromanol 293B: 30 μM N-AT in the presence of 5 μM Chromanol 293B
Experimental: On gestation day (GD) 16 of pregnancy time-mated Sprague Dawley rats (Taconic, Denmark) were sacrificed in a CO2 chamber followed by cervical dislocation. Cell preparation of cardiomyocytes and culturing on glass coverslips were made (Danielsson, C. et al. Cardiovasc Res 97, 23-32 (2013)). Spontaneous action potentials were measured using the patch-clamp technique, whole cell configuration, 1-3 days after culturing. An Axopatch 200B patch-clamp amplifier, Digidata 1140A converter (Molecular Devices) and pClamp software (Molecular Devices) were used to acquire data. The extracellular solution contained (in mM): 140 NaCl, 5.4 KCl, 1 MgCl2, 1.8 CaCl2, 10 Glucose and 10 HEPES (pH 7.4, adjusted with NaOH). The intracellular solution contained (in mM): 130 K-gluconate, 9 KCl, 8 NaCl, 10 EGTA, 1 MgCl2, 10 HEPES and 3 MgATP (pH 7.3, adjusted with KOH). The solutions were perfused through the recording chamber (flow: 0.5 mL/min). All chemicals were purchased from Sigma-Aldrich. […] All experiments were carried out at 35° C. To analyze action potential characteristics a stable 60-seconds recording was selected before and after application of the test solution. The average data were then calculated for the complete trace in Clampfit 10 (Molecular Devices). Liquid junction potential was not adjusted for.
Average values are expressed as mean±SEM. Mean values for shifts in voltage dependence were analyzed using a two-tailed one samplet-test where mean values were compared with a hypothetical value of 0 or where mean values were compared to each other. Effects of N-AT on action potential peak amplitude and RMP in cardiomyocytes were analyzed using paired two-tailed t-test. Effects of N-AT on the relative change of APD and RR-interval were analyzed using two-tailed one samplet-test where mean values were compared with a hypothetical value of 1. P<0.05 is considered as statistically significant.
The effect of N-arachidonoyl taurine on isolated embryonic rat cardiomyocytes was tested. A sub-saturating concentration of the IKs channel blocker Chromanol 293B, which is known to induce arrhythmia (Aiba, T. et al. J Am Coll Cardiol 45, 300-307 (2005)), was applied to the cardiomyocytes. In general, two types of effects are seen upon Chromanol 293B application: (1) arrhythmic firing (FIG. 8A-B) or (2) a slowing of the frequency of spontaneous action potential firing (FIG. 8D-E). The different effects are most likely due to different subtypes of cardiomyocytes. […] The anti-arrhythmic effect of N-arachidonoyl taurine was associated with a shortening of the cardiomyocyte action potential duration and an increase in the frequency of action potential firing (FIG. 8G-I, Table 2). 30 μM N-arachidonoyl taurine had no effect on the resting membrane potential (Table 2) but decreased the action potential peak amplitude by −9±1 mV (Table 2).
Cardiomyocytes were isolated from rat heart and the spontaneous electrical activity in the cardiomyocytes was measured using the current clamp mode of patch clamp. […] Further, arrhythmia was induced in these cardiomyocytes by the IKs specific drug chromanol. In the presence of 5 μM chromanol, there are clearly additional action potentials caused by early after depolarizations (EADs) (FIG. 9D). EADs are known to accompany Long QT and could lead to ventricular fibrillation and cardiac sudden death in the intact heart. […] N-AT and chromanol are known to bind to different parts of the IKs channels (chromanol is a pore blocker, whereas N-AT is binding to the voltage sensor), so this effect of N-AT is not just a competition with chromanol to the same binding site. Rather, N-AT increases the currents by attracting the voltage sensor, whereas chromanol is known to block the currents by binding to the pore.

[1] = 30 μM N-AT vs control, listed as N-arachidonoyl taurine

## CCCCC/C=C\C/C=C\C/C=C\C/C=C\CCCC(=O)NCCS(=O)(=O)O [N-AT, N-arachidonoyl taurine]
30 μM N-AT
  APD30, Mean ± SEM: 211 ± 37 ms
  APD50, Mean ± SEM: 279 ± 47 ms
  APD70, Mean ± SEM: 336 ± 50 ms
  Amplpeak (peak action potential amplitude), Mean ± SEM: 32 ± 2 mV
  RMP (resting membrane potential), Mean ± SEM: −56 ± 2 mV
  RR-interval, Mean ± SEM: 2075 ± 197 ms
  length of the ventricular action potential / action potential duration: reduced the length of the ventricular action potential; also recorded: shortened the cardiomyocyte action potential duration
  effect on arrhythmic firing induced by Chromanol 293B: restores rhythmic firing; also recorded: reversed the arrhythmic behavior
Listed as N-arachidonoyl taurine
  effect on arrhythmic firing induced by Chromanol 293B: reversed the effect
30 μM N-AT in the presence of 5 μM chromanol
  early after depolarizations (EADs): removed these EADs
30 μM N-AT vs control
  APD30, Change (relative change): 0.81 ± 0.04
  APD50, Change (relative change): 0.83 ± 0.03
  APD70, Change (relative change): 0.84 ± 0.03
  Amplpeak, Change: −9 ± 1 mV
  RR-interval, Change (relative change): 0.74 ± 0.05
[1]
  Amplpeak, Change: −9±1 mV
  RMP, Change: no effect

Reference: patent US20170216240A1, “METHODS FOR MODULATING IKS CHANNEL ACTIVITY” (UNIVERSITY OF MIAMI, priority 2014, published 2017)
